Structures can show the parent of a compound that is named as a salt.
target: T1, human SGLT2 (Homo sapiens, UniProt P31639); assay: SGLT2 inhibition assay, 14C-AMG uptake in CHO-K1 cells stably expressing human SGLT2; format: cell-based; settings: not given
T1 construct: expressed in transfected cells; host or cells: CHO-K1
T1 sequence (P31639 1-672): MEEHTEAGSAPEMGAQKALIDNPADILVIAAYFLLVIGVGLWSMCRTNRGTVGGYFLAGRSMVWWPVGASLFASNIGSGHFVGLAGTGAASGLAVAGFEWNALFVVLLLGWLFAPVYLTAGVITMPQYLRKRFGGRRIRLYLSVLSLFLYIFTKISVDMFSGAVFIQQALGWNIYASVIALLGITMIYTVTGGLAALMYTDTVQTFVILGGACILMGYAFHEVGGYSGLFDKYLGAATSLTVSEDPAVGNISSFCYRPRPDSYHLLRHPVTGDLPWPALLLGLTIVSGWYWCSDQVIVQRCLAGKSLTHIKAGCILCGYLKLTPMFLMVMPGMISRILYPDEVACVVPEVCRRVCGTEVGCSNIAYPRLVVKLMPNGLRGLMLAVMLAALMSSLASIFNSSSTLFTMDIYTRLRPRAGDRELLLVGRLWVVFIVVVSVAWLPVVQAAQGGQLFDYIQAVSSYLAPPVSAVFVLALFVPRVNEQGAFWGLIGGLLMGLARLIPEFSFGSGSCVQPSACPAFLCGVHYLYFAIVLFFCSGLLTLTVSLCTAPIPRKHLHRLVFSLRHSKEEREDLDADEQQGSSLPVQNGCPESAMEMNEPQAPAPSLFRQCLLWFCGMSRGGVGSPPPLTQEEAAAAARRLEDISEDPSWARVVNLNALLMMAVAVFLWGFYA
Procedure: (§1) The cells were incubated for 24 hours. […] Plates were counted in a TopCount (Packard, Meriden, Conn.). Each experiment was repeated at least twice.
(§2) Results are reported as the %-inhibition or IC50 value.

Row | SMILES | IC50 [nM]
1 | OC[C@H]1O[C@H](c2ccc(Cl)c(Cc3ccc(OCc4cc(COc5ccc(Cc6cc([C@@H]7O[C@H](CO)[C@@H](O)[C@H](O)[C@H]7O)ccc6Cl)cc5)c(COc5ccc(Cc6cc([C@@H]7O[C@H](CO)[C@@H](O)[C@H](O)[C@H]7O)ccc6Cl)cc5)cc4COc4ccc(Cc5cc([C@@H]6O[C@H](CO)[C@@H](O)[C@H](O)[C@H]6O)ccc5Cl)cc4)cc3)c2)[C@H](O)[C@@H](O)[C@@H]1O [(III), (2R,2′R,2″R,3S,3′S,3″S,4R,4′R,4″R,5R,5′R,5″R,6S,6′S,6″S)-6,6′,6″-((((((5-((4-(2-chloro-5-((2R,3R,4R,5S,6R)-3,4,5-trihydroxy-6-(hydroxymethyl)tetrahydro-2H-pyran-2-yl)benzyl)phenoxy)methyl)benzene-1,2,4-triyl)tris(methylene))tris(oxy))tris(benzene-4,1-diyl))tris(methylene))tris(4-chlorobenzene-3,1-diyl))tris(2-(hydroxymethyl)tetrahydro-2H-pyran-3,4,5-triol)] | 33
2 | OC[C@H]1O[C@@H](c2ccc(Cl)c(Cc3ccc(OCCOCCOc4ccc(Cc5cc([C@@H]6O[C@H](CO)[C@@H](O)[C@H](O)[C@H]6O)ccc5Cl)cc4)cc3)c2)[C@H](O)[C@@H](O)[C@@H]1O [Compound 10, (2R,2′R,3S,3′S,4R,4′R,5R,5′R,6S,6′S)-6,6′-(((((oxybis(ethane-2,1-diyl))bis(oxy))bis(4,1-phenylene))bis(methylene))bis(4-chloro-3,1-phenylene))bis(2-(hydroxymethyl)tetrahydro-2H-pyran-3,4,5-triol)] | 7.6
3 | OC[C@H]1O[C@@H](c2ccc(Cl)c(Cc3ccc(OCCOCCOCCOc4ccc(Cc5cc([C@@H]6O[C@H](CO)[C@@H](O)[C@H](O)[C@H]6O)ccc5Cl)cc4)cc3)c2)[C@H](O)[C@@H](O)[C@@H]1O [Compound 11] | 20.8
4 | OC[C@H]1O[C@@H](c2ccc(Cl)c(Cc3ccc(OCc4ccc(COc5ccc(Cc6cc([C@@H]7O[C@H](CO)[C@@H](O)[C@H](O)[C@H]7O)ccc6Cl)cc5)nc4)cc3)c2)[C@H](O)[C@@H](O)[C@@H]1O [Compound 14, (2R,2′R,3S,3′S,4R,4′R,5R,5′R,6S,6′S)-6,6′-(((((pyridine-2,5-diylbis(methylene))bis(oxy))bis(4,1-phenylene))bis(methylene))bis(4-chloro-3,1-phenylene))bis(2-(hydroxymethyl)tetrahydro-2H-pyran-3,4,5-triol) trifluoroacetate] | 4.8
5 | C[N+]1(Cc2ccc(COc3ccc(Cc4cc([C@@H]5O[C@H](CO)[C@@H](O)[C@H](O)[C@H]5O)ccc4Cl)cc3)cc2)CCC(C2CC[N+](C)(Cc3ccc(COc4ccc(Cc5cc([C@@H]6O[C@H](CO)[C@@H](O)[C@H](O)[C@H]6O)ccc5Cl)cc4)cc3)CC2)CC1 (stereo partly drawn) [Compound 16, 1,1′-bis(4-((4-(2-chloro-5-((2S,3R,4R,5S,6R)-3,4,5-trihydroxy-6-(hydroxymethyl)tetrahydro-2H-pyran-2-yl)benzyl)phenoxy)methyl)benzyl)-1,1′-dimethyl-[4,4′-bipiperidine]-1,1′-diium trifluoroacetate] | 4
6 | C[N+]1(Cc2ccc(COc3ccc(Cc4cc([C@@H]5O[C@H](CO)[C@@H](O)[C@H](O)[C@H]5O)ccc4Cl)cc3)cc2)CCC(CCC2CC[N+](C)(Cc3ccc(COc4ccc(Cc5cc([C@@H]6O[C@H](CO)[C@@H](O)[C@H](O)[C@H]6O)ccc5Cl)cc4)cc3)CC2)CC1 (stereo partly drawn) [Compound 17, 4,4′-(ethane-1,2-diyl)bis(1-(4-((4-(2-chloro-5-((2S,3R,4R,5S,6R)-3,4,5-trihydroxy-6-(hydroxymethyl)tetrahydro-2H-pyran-2-yl)benzyl)phenoxy)methyl)benzyl)-1-methylpiperidin-1-ium) trifluoroacetate] | 5

Continued, values first:

Row | IC50 [nM] | SMILES
7 | 377 | O=C(O)C(CCC(Oc1ccc(Cc2cc([C@@H]3O[C@H](CO)[C@@H](O)[C@H](O)[C@H]3O)ccc2Cl)cc1)C(=O)O)Oc1ccc(Cc2cc([C@@H]3O[C@H](CO)[C@@H](O)[C@H](O)[C@H]3O)ccc2Cl)cc1 (mixture of isomers) [Compound 18]
8 | 9.6 | OC[C@H]1O[C@@H](c2ccc(Cl)c(Cc3ccc(OCCOCCOCCOCCOc4ccc(Cc5cc([C@@H]6O[C@H](CO)[C@@H](O)[C@H](O)[C@H]6O)ccc5Cl)cc4)cc3)c2)[C@H](O)[C@@H](O)[C@@H]1O [Compound 12]
9 | 32 | OC[C@H]1O[C@@H](c2ccc(Cl)c(Cc3ccc(OCc4ccc(COc5ccc(Cc6cc([C@@H]7O[C@H](CO)[C@@H](O)[C@H](O)[C@H]7O)ccc6Cl)cc5)cc4)cc3)c2)[C@H](O)[C@@H](O)[C@@H]1O [Compound 13]
10 | 121 | C[N+](C)(CCOc1ccc(Cc2cc([C@@H]3O[C@H](CO)[C@@H](O)[C@H](O)[C@H]3O)ccc2Cl)cc1)CCOc1ccc(Cc2cc([C@@H]3O[C@H](CO)[C@@H](O)[C@H](O)[C@H]3O)ccc2Cl)cc1 [Compound 15, trifluoroacetate]
11 | 24 | C[N+](C)(CCCc1ccc(-c2ccc(Cc3cc([C@@H]4O[C@H](CO)[C@@H](O)[C@H](O)[C@H]4O)ccc3Cl)s2)cc1)CCOc1ccc(-c2ccc(Cc3cc([C@@H]4O[C@H](CO)[C@@H](O)[C@H](O)[C@H]4O)ccc3Cl)s2)cc1 [Compound 19, N-(2-(4-(5-(2-chloro-5-((2S,3R,4R,5S,6R)-3,4,5-trihydroxy-6-(hydroxymethyl)tetrahydro-2H-pyran-2-yl)benzyl)thiophen-2-yl)phenoxy)ethyl)-3-(4-(5-(2-chloro-5-((2S,3R,4R,5S,6R)-3,4,5-trihydroxy-6-(hydroxymethyl)tetrahydro-2H-pyran-2-yl)benzyl)thiophen-2-yl)phenyl)-N,N-dimethylpropan-1-aminium trifluoroacetate]

target: T2, human SGLT1 (Homo sapiens, UniProt P13866); assay: SGLT1 inhibition assay, 14C-AMG uptake in CHO-K1 cells stably expressing human SGLT1; format: cell-based; settings: CHO-K1, CHO-K1 cells, 1 μM test compound; read-out: CHO-K1 Cells SGLT1 % Inh @1 μM
T2 construct: expressed in transfected cells; host or cells: CHO-K1
T2 sequence (P13866 1-664): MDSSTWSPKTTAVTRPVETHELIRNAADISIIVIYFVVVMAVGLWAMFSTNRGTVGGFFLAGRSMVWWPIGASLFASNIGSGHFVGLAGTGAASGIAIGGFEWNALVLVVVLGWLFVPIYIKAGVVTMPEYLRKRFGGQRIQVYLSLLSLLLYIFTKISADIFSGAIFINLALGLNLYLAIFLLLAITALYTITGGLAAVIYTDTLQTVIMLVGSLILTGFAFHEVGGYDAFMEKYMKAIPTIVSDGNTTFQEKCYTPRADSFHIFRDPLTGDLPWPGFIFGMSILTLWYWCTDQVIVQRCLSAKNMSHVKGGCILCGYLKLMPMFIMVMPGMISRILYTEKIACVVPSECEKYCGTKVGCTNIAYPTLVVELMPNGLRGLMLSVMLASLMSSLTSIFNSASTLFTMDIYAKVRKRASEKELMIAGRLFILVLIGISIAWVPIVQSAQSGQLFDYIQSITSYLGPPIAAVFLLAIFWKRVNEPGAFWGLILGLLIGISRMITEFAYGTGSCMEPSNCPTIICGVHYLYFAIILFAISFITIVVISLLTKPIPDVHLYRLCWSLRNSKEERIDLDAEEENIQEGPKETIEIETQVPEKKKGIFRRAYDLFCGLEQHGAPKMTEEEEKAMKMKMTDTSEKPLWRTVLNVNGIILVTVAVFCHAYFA
Procedure: as §1, §2

Row | inhibition at 1 µM [%] | SMILES
12 | 14.5 | COCCOCCOCCOCCOc1ccc(Cc2cc([C@@H]3O[C@H](CO)[C@@H](O)[C@H](O)[C@H]3O)ccc2Cl)cc1 [Compound 1]
13 | 20 | O=S(=O)(O)CCCOc1ccc(Cc2cc([C@@H]3O[C@H](CO)[C@@H](O)[C@H](O)[C@H]3O)ccc2Cl)cc1 [Compound 2, 3-(4-(2-chloro-5-((2S,3R,4R,5S,6R)-3,4,5-trihydroxy-6-(hydroxymethyl)tetrahydro-2H-pyran-2-yl)benzyl)phenoxy)propane-1-sulfonic acid]
14 | 43.1 | C[N+]1(CCCCCOc2ccc(Cc3cc([C@@H]4O[C@H](CO)[C@@H](O)[C@H](O)[C@H]4O)ccc3Cl)cc2)CCCC1 [Compound 6, 1-(5-(4-(2-chloro-5-((2S,3R,4R,5S,6R)-3,4,5-trihydroxy-6-(hydroxymethyl)tetrahydro-2H-pyran-2-yl)benzyl)phenoxy)pentyl)-1-methylpyrrolidin-1-ium trifluoroacetate]
15 | 17.5 | C[N+]1(CCOCCOc2ccc(Cc3cc([C@@H]4O[C@H](CO)[C@@H](O)[C@H](O)[C@H]4O)ccc3Cl)cc2)CCCC1 [Compound 7]

same assay, conditions: CHO-K1, read-out: CHO-K1 Cells SGLT1 % Inh @1 μM

Row | SMILES | inhibition at 1 µM [%]
16 | OC[C@H]1O[C@@H](c2ccc(Cl)c(Cc3ccc(OCc4ccc(COc5ccc(Cc6cc([C@@H]7O[C@H](CO)[C@@H](O)[C@H](O)[C@H]7O)ccc6Cl)cc5)nc4)cc3)c2)[C@H](O)[C@@H](O)[C@@H]1O [Compound 14, (2R,2′R,3S,3′S,4R,4′R,5R,5′R,6S,6′S)-6,6′-(((((pyridine-2,5-diylbis(methylene))bis(oxy))bis(4,1-phenylene))bis(methylene))bis(4-chloro-3,1-phenylene))bis(2-(hydroxymethyl)tetrahydro-2H-pyran-3,4,5-triol) trifluoroacetate] | 19

same assay, conditions: CHO-K1 cells; IC50 printed in the % Inh column

Row | IC50 [nM] | SMILES
17 | 1490 | OC[C@H]1O[C@@H](c2ccc(Cl)c(Cc3ccc(OCCOCCOc4ccc(Cc5cc([C@@H]6O[C@H](CO)[C@@H](O)[C@H](O)[C@H]6O)ccc5Cl)cc4)cc3)c2)[C@H](O)[C@@H](O)[C@@H]1O [Compound 10, (2R,2′R,3S,3′S,4R,4′R,5R,5′R,6S,6′S)-6,6′-(((((oxybis(ethane-2,1-diyl))bis(oxy))bis(4,1-phenylene))bis(methylene))bis(4-chloro-3,1-phenylene))bis(2-(hydroxymethyl)tetrahydro-2H-pyran-3,4,5-triol)]
